{
  "source": "patent US20140066303A1",
  "about": "“COMPOSITIONS AND METHODS FOR IMPROVING THE COMPATIBILITY OF WATER SOLUBLE HERBICIDE SALTS” (DOW AGROSCIENCES LLC, priority 2012, published 2014)",
  "format_in_all_cases": "physicochemical",
  "key": {"[1]": {"test": "Critical Crystallization Concentration (CCC) of 2,4-D DMA in spray mixtures with glyphosate potassium salt", "conditions": "2,4-D DMA + Roundup PowerMax 1:1 AE; no SAC, control sample; 342 ppm hardness water; 24 h ambient", "description": "(§1) Alternatively, the relative effectiveness of the surface active compatibilizers described herein at improving the compatibility of the aqueous herbicide solutions described herein can be determined by measuring the Critical Crystallization Concentration (CCC) of the aryloxyalkanoic acid salt, the pyridyloxyalkanoic acid salt, the arylcarboxylic acid salt, or the heteroarylcarboxylic acid salt of an inorganic cation such as, for example, the potassium salt of 2,4-D in a tank mix solution. The CCC of a particular composition can be measured by preparing saturated and over saturated solutions or mixtures of the composition and then measuring the concentration of the particular herbicidal carboxylic acid remaining in solution. […]\n(§2) The CCC of 2,4-D compositions were measured using the following method. […] The CCC was determined by measuring the X-intercept of the extrapolated linear function of the crystal weight vs. 2,4-D wt % AE concentration. […] The amounts of 2,4-D and glyphosate salts were added to achieve desired AE concentrations of 2,4-D and glyphosate at 1:1 ratio, and the amount of water was calculated as a balance ingredient to achieve the final mixture volume of 100 ml. • 7. […]"}, "[2]": {"test": "Critical Crystallization Concentration (CCC) of 2,4-D DMEA in spray mixtures with glyphosate potassium salt", "conditions": "2,4-D DMEA + Roundup PowerMax 1:1 AE; no SAC, control sample; 342 ppm water; 24 h ambient", "description": "as §1, §2"}, "[3]": {"test": "On-set pH of crystallization (OSPOC) of aqueous 2,4-D potassium solution, titration with sulfuric acid", "conditions": "3% AE w/w 2,4-D K in water; control, no SAC (0.0%); pH lowered with 0.2 N sulfuric acid", "description": "Without intending to be bound by theory, the surface active compatibilizers described herein are believed to improve the compatibility of aqueous herbicide solutions comprised of at least one of a water soluble salt of an aryloxyalkanoic acid, a water soluble salt of a pyridyloxyalkanoic acid, a water soluble salt of an arylcarboxylic acid, a water soluble salt of a heteroarylcarboxylic acid and a water soluble salt of glyphosate, a suitable concentration of one or more inorganic cations, and a pH of less than about 6.5 by preventing or inhibiting the crystallization or precipitation of solids. The relative effectiveness of the surface active compatibilizers in preventing the formation of these solids can be estimated by measuring the on-set pH of crystallization (OSPOC) of the solids in a titration analysis procedure. The OSPOC of a particular composition can be measured, for example, by titrating a solution of an aryloxyalkanoic or a pyridyloxyalkanoic acid salt of an inorganic cation such as, for example, the potassium salt of 2,4-D with a strong acid such as, for example, sulphuric acid until solids or crystals begin forming at a particular pH value (the OSPOC). […]"}},
  "data": [
    {"smiles": "CNC.O=C(O)COc1ccc(Cl)cc1Cl", "note": "[2,4-D DMA, 2,4-D dimethyl ammonium salt]", "values": [
      {"measurement": "2,4-D CCC", "setting": "[1]", "result": 0.89, "unit": "% AE"}
    ]},
    {"smiles": "CN(C)CCO.O=C(O)COc1ccc(Cl)cc1Cl", "note": "[2,4-D DMEA, 2,4-D dimethylethanol ammonium salt]", "values": [
      {"measurement": "2,4-D CCC", "setting": "[2]", "result": 1.04, "unit": "% AE"}
    ]},
    {"smiles": "O=C([O-])COc1ccc(Cl)cc1Cl.[K+]", "note": "[2,4-D K, 2,4-D potassium]", "values": [
      {"measurement": "On-Set pH of Crystallization (OSPOC)", "setting": "[3]", "result": 6.16}
    ]}
  ]
}
